This data set can be described thus: Accelerated stability test for a novel crystalline form of Cabazitaxel. In kind it is physicochemical.

This note sets out measurements from patent publication US9353076B2, “Crystal form of cabazitaxel and preparation method thereof” (Chongqing Taihao Pharmaceutical Co., Ltd., priority 2012, dated 2016).

Regarding “4-acetoxy-2α-benzoyloxy-5β,20-epoxy-1-hydroxy-7β,10β-dimethoxy-9-oxo-11-taxadiene-13α-yl(2R,3S)-3-tert-butoxycarbonylamino-2-hydroxy-3-phenyl-propionate [crystalline form G of Cabazitaxel]”, the “Content (%)” value is, setting by setting: (0 month) 99.4%; (1 month) 99.4%; (2 months) 99.4%; (3 months) 99.3%; (6 months) 99.1%. Also, the “Moisture (%)” value was found to be 1.92% (0 month); 1.96% (1 month); 1.99% (2 months); 2.03% (3 months); 2.09% (6 months). In addition, the “The other maximum individual impurity (%)” value by setting is: (0 month) 0.05%; (1 month) 0.05%; (2 months) 0.05%; (3 months) 0.05%; (6 months) 0.05%. Also, the “Total impurity (%)” value is, setting by setting: (0 month) 0.17%; (1 month) 0.16%; (2 months) 0.17%; (3 months) 0.16%; (6 months) 0.16%.

In the case of “4-acetoxy-2α-benzoyloxy-5β,20-epoxy-1-hydroxy-7β,10β-dimethoxy-9-oxo-11-taxadiene-13α-yl(2R,3S)-3-tert-butoxycarbonylamino-2-hydroxy-3-phenyl-propionate [crystalline form I of Cabazitaxel]”, the “Content (%)” value runs as follows: (0 month) 99.7%; (1 month) 99.6%; (2 months) 99.7%; (3 months) 99.6%; (6 months) 99.5%. Further, the “Moisture (%)” value (0 month) is listed as 0.45%; the “Moisture (%)” value (1 month) turned out to be 0.47%; the “Moisture (%)” value (2 months) is reported as 0.50%; the “Moisture (%)” value (3 months) is on record as 0.54%; the “Moisture (%)” value (6 months) is 0.51%. Further, the “The other maximum individual impurity (%)” value runs as follows: (0 month) 0.06%; (1 month) 0.06%; (2 months) 0.05%; (3 months) 0.06%; (6 months) 0.06%. Also, the “Total impurity (%)” value reads like this: (0 month) 0.21%; (1 month) 0.20%; (2 months) 0.20%; (3 months) 0.21%; (6 months) 0.22%.

For the substance “4-acetoxy-2α-benzoyloxy-5β,20-epoxy-1-hydroxy-7β,10β-dimethoxy-9-oxo-11-taxadiene-13α-yl(2R,3S)-3-tert-butoxycarbonylamino-2-hydroxy-3-phenyl-propionate [crystalline form J of Cabazitaxel]”, the “Content (%)” value by setting is: (0 month) 99.8%; (1 month) 99.7%; (2 months) 99.6%; (3 months) 99.6%; (6 months) 99.5%. The “Moisture (%)” value is, setting by setting: (0 month) 0.40%; (1 month) 0.44%; (2 months) 0.46%; (3 months) 0.50%; (6 months) 0.48%. Further, the “The other maximum individual impurity (%)” value by setting is: (0 month) 0.08%; (1 month) 0.07%; (2 months) 0.07%; (3 months) 0.08%; (6 months) 0.08%. For the same substance, the “Total impurity (%)” value runs as follows: (0 month) 0.25%; (1 month) 0.25%; (2 months) 0.28%; (3 months) 0.26%; (6 months) 0.28%.
